Laboratory results reported in patent publication US20110015225A1, “Heterocyclic compound” (Takeda Pharmaceutical Company Limited, priority 2008, published 2011).

biological target: MCH receptor (SLC-1) (UniProt Q99705); test: MCH receptor antagonistic activity using GTPγS binding assay; type: biochemical, human; settings: [35S]-GTPγS binding, membrane fractions of SLC-1 expression CHO cells, 3×10^−10 M MCH, 25° C. 1 hr; read-out: Inhibitory Activity (IC50 value: nM)
Experimental: Using human SLC-1 expression CHO cell clone 57 and rat SLC-1 expression CHO cell clone 44 described in WO01/82925, membrane fractions of SLC-1 expression CHO cells were prepared by the following method. In phosphate buffered saline (pH 7.4) supplemented with 5 mM EDTA (ethylenediaminetetraacetic acid) were suspended human and rat SLC-1 expression CHO cells (1×10^8) and centrifuged. Homogenate buffer (10 ml, 10 mM […], 5 mM EDTA, pH 7.5) was added to the pellets of the cells and, using Polytron Homogenizer, the mixture was homogenated. The supernatant obtained after centrifugation at 400×g for 15 min was further centrifuged at 100,000×g for 1 hr to give precipitate of the membrane fraction. The precipitate was suspended in 2 ml of an assay buffer [50 mM Tris-HCl (pH 7.5), 1 mM EDTA, 0.1% BSA (bovine serum albumin), 10 mM MgCl2, 100 mM NaCl, 1 μM GDP (guanosine 5′-diphosphate), 0.25 mM PMSF (phenylmethylsulfonyl fluoride), […]] and centrifuged at 100,000×g for 1 hr. The membrane fraction recovered as precipitate was suspended again in 20 ml of an assay buffer, and after dispensing, preserved at −80° C. and used upon thawing each time when in use.
The MCH receptor antagonistic activity of the test compound was determined as follows. The membrane fractions of SLC-1 expression CHO cells (171 μl) diluted with an assay buffer was dispensed to a polypropylene 96 well plate and 3×10^−10 M MCH (2 μl) diluted with DMSO solution, test compound solution (2 μl) diluted to various concentrations and [^35S]-Guanosine 5′-(γ-thio)triphosphate (25 μl, Daiichi Pure Chemicals Co., Ltd.) were respectively added (cellular membrane final concentration: 20 μg/ml, [^35S]-Guanosine 5′-(γ-thio)triphosphate final concentration: 0.33 nM). The reaction mixture was reacted at 25° C. for 1 hr with stirring, suction filtered with a glass filter (GF-C) and washed 3 times with a wash solution (300 μl, 50 mM Tris-HCl buffer, pH 7.5). Liquid scintillator ([…]) was added to the glass filter and the residual radioactivity was determined by a liquid scintillation counter.
Binding inhibition (%)=(radioactivity upon addition of test compound and MCH−radioactivity upon addition of DMSO solution)/(radioactivity upon addition of MCH−radioactivity upon addition of DMSO solution)×100
From the binding inhibition (%), IC50 of the test compound was calculated.

| SMILES | IC50 [nM] |
| --- | --- |
| Cc1c(NC(=O)c2ccc(C#CC3CC3)cc2)ccc2cc(CNC3CCS(=O)(=O)CC3)cnc12 [Ex. 41, 4-(cyclopropylethynyl)-N-(3-{[(1,1-dioxidotetrahydro-2H-thiopyran-4-yl)amino]methyl}-8-methylquinolin-7-yl)benzamide] | 2.2 |
| Cc1c(NC(=O)c2ccc(C#CC3CC3)cc2)ccc2cc(CNCC3(O)CCS(=O)(=O)CC3)cnc12 [Ex. 43, 4-(cyclopropylethynyl)-N-[3-({[(4-hydroxy-1,1-dioxidotetrahydro-2H-thiopyran-4-yl)methyl]amino}methyl)-8-methylquinolin-7-yl]benzamide] | 4.7 |
| Cc1c(NC(=O)c2ccc(C#CC3CC3)cc2)ccc2cc(CNCCCS(C)(=O)=O)cnc12 [Ex. 44, 4-(cyclopropylethynyl)-N-[8-methyl-3-({[3-(methylsulfonyl)propyl]amino}methyl)quinolin-7-yl]benzamide] | 2.2 |
| Cc1c(NC(=O)c2ccc(/C=C/C3CC3)cc2)ccc2cc(CNC3CCS(=O)(=O)CC3)cnc12 [Ex. 45, 4-[(E)-2-cyclopropylvinyl]-N-(3-{[(1,1-dioxidotetrahydro-2H-thiopyran-4-yl)amino]methyl}-8-methylquinolin-7-yl)benzamide] | 4.9 |
| CC1=C(CNC2CCS(=O)(=O)CC2)CCc2cc(NC(=O)c3ccc(OCC4CC4)cc3)ccc21 [Ex. 47, 4-(cyclopropylmethoxy)-N-(6-{[(1,1-dioxidotetrahydro-2H-thiopyran-4-yl)amino]methyl}-5-methyl-7,8-dihydronaphthalen-2-yl)benzamide] | 6.7 |

Further compounds by falling IC50, results first:

| IC50 [nM] | SMILES |
| --- | --- |
| 4.4 | O=C(Nc1ccc2cc(CNC3CCS(=O)(=O)CC3)ccc2c1)c1ccc(OCC2CC2)cc1 [Ex. 46, 4-(cyclopropylmethoxy)-N-(6-{[(1,1-dioxidotetrahydro-2H-thiopyran-4-yl)amino]methyl}naphthalen-2-yl)benzamide] |
| 2.3 | Cc1c(NC(=O)c2ccc(C#CC3CC3)cc2)ccc2cc(CNC3CCN(S(C)(=O)=O)CC3)cnc12 [Ex. 42, 4-(cyclopropylethynyl)-N-[8-methyl-3-({[1-(methylsulfonyl)piperidin-4-yl]amino}methyl)quinolin-7-yl]benzamide] |
